Among the test systems are NCI-H522 lung; MALME-3M melanoma; SF-295 CNS; MOLT-4 leukemia; SK-MEL-2 melanoma; SK-MEL-28 melanoma; OVCAR-3 ovarian; HOP-92 NSCLC; HS 578T breast.
Experiment in all cases: inhibition of tumour cell growth, NCI panel, 48 h

Several values for one entry are separate records, joined by “and”; a condition that tells them apart may be missing. Equal entries are not always repeated.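 Test compounds were applied to cells in 96-well plates for 48 hours at 5 doses. GI50 marks 50% less growth. TGI is the concentration that stops growth completely.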

For `CC(=O)O[C@]1(C)OC(=O)[C@@H](C)N1[N+](=O)[O-]`, the TGI with NCI-H522 lung, in the assay on MALME-3M melanoma, in the assay on SF-295 CNS, with MOLT-4 leukemia, in the assay on SK-MEL-2 melanoma and in the assay on SK-MEL-28 melanoma was greater than 100 µM each time. In the assay on OVCAR-3 ovarian, this compound came in with a TGI greater than 100 µM.
In the case of `CC(C)(C)CC(C)(C)c1cc2c(O)c(c1)Cc1cc(C(C)(C)CC(C)(C)C)cc(c1O)Cc1cc(C(C)(C)CC(C)(C)C)cc(c1O)Cc1cc(C(C)(C)CC(C)(C)C)cc(c1O)Cc1cc(C(C)(C)CC(C)(C)C)cc(c1O)Cc1cc(C(C)(C)CC(C)(C)C)cc(c1O)C2`, the TGI in the assay with NCI-H522 lung, in the assay with HOP-92 NSCLC, in the assay with MALME-3M melanoma, in the assay with SF-295 CNS, in the assay with MOLT-4 leukemia and in the assay on SK-MEL-2 melanoma was greater than 100 µM each time. For the same compound, the TGI in the assay on SK-MEL-28 melanoma and in the assay on OVCAR-3 ovarian was greater than 100 µM throughout.
As for `O=C(O)Cc1cccc2c1Oc1ccccc1S2`, the TGI with HOP-92 NSCLC, with MALME-3M melanoma, in the assay on SF-295 CNS, in the assay with MOLT-4 leukemia, in the assay on SK-MEL-2 melanoma and in the assay on SK-MEL-28 melanoma was greater than 100 µM throughout. Also, the TGI in the assay on OVCAR-3 ovarian is greater than 100 µM.
On to `O=C(c1ccccc1)c1ccc(OCCOc2ccc(Nc3ccccc3)cc2)cc1`, for which the TGI in the assay on NCI-H522 lung was 53.3 µM; in the assay with HOP-92 NSCLC it was 73.5 µM; with MALME-3M melanoma, 71 µM; in the assay with SF-295 CNS it was 93.9 µM; in the assay with MOLT-4 leukemia it was greater than 100 µM; in the assay with SK-MEL-2 melanoma it was greater than 100 µM. The TGI with SK-MEL-28 melanoma and in the assay on OVCAR-3 ovarian was greater than 100 µM each time.
As for `O=C1CCCC/C1=C1\C(=O)Nc2cc(F)ccc21`, the TGI in the assay on NCI-H522 lung, in the assay on HOP-92 NSCLC, in the assay with MALME-3M melanoma, in the assay with SF-295 CNS, in the assay on MOLT-4 leukemia and with SK-MEL-2 melanoma was greater than 100 µM each time. The TGI in the assay with SK-MEL-28 melanoma was greater than 100 µM.
Turning to `CCSC1(SCC)CC(Cc2ccc(OC)cc2)N(C=NC(C)(C)C)C1` (stereo unspecified), the TGI in the assay with NCI-H522 lung is 31.1 µM; in the assay on HOP-92 NSCLC it was 25 µM; in the assay with MALME-3M melanoma it was 37.5 µM; in the assay with SF-295 CNS, 45.5 µM; with MOLT-4 leukemia it was 40.9 µM; with SK-MEL-2 melanoma, greater than 100 µM. Moreover, the TGI with SK-MEL-28 melanoma was 88.4 µM; in the assay on OVCAR-3 ovarian, greater than 100 µM.
`COc1c(NC(C)=O)cc(C)cc1NC(C)=O`: the TGI in the assay on NCI-H522 lung, in the assay on HOP-92 NSCLC, in the assay on SF-295 CNS, with MOLT-4 leukemia, in the assay on SK-MEL-2 melanoma and in the assay with SK-MEL-28 melanoma was greater than 100 µM in each case. In the assay on OVCAR-3 ovarian, this compound showed a TGI greater than 100 µM.
Regarding `CCCCCCCCOC(CO)CO`, the TGI with HOP-92 NSCLC, with MALME-3M melanoma, in the assay with SF-295 CNS, in the assay on MOLT-4 leukemia, in the assay with SK-MEL-28 melanoma and in the assay on OVCAR-3 ovarian was greater than 100 µM each time.
`C1C[S][Ge]2([S]CCO1)[S]CCOCC[S]2`: the GI50 in the assay on NCI-H522 lung, in the assay on HOP-92 NSCLC, with MALME-3M melanoma, in the assay on MOLT-4 leukemia, in the assay on SK-MEL-2 melanoma and with SK-MEL-28 melanoma was greater than 100 µM in each case. The TGI with NCI-H522 lung, with HOP-92 NSCLC, in the assay on MALME-3M melanoma, in the assay with MOLT-4 leukemia, with SK-MEL-2 melanoma and in the assay with SK-MEL-28 melanoma was greater than 100 µM each time.
As to `Cc1c(-c2nnc(-c3ccc(Cl)cc3)o2)c(=O)n(-c2ccccc2)n1C`, the TGI with NCI-H522 lung, in the assay on HOP-92 NSCLC, in the assay on MALME-3M melanoma, in the assay on SF-295 CNS, with MOLT-4 leukemia and in the assay on SK-MEL-2 melanoma was greater than 100 µM throughout. Besides, the TGI in the assay on SK-MEL-28 melanoma and with OVCAR-3 ovarian was greater than 100 µM each time.
Regarding `C/C(=N\N=C(\[Se])N1CCN(c2ccccn2)CC1)c1ccccn1`, the GI50 in the assay on NCI-H522 lung is 0.0429 µM; with HOP-92 NSCLC it was 0.0044 µM; in the assay with MALME-3M melanoma, 0.159 µM; in the assay with SF-295 CNS, 0.0204 µM; in the assay on MOLT-4 leukemia, 0.00298 µM. Also, the TGI in the assay on NCI-H522 lung was 0.761 µM and 3.2 µM; with HOP-92 NSCLC, 13.2 µM; with HS 578T breast, 68.2 µM; in the assay on MALME-3M melanoma, 3.78 µM; in the assay on SF-295 CNS, 16.7 µM; with SK-MEL-2 melanoma, 2.36 µM. Also, the TGI with SK-MEL-28 melanoma is 22.7 µM.
Turning to `COc1ccc2c3c(n(Cc4ccccc4)c(=O)c2c1)-c1cc(OC)c(OC)cc1C3C` (stereo unspecified), the TGI with NCI-H522 lung was 47.8 µM; with HOP-92 NSCLC it was 42.6 µM; in the assay with MALME-3M melanoma, 57.6 µM; in the assay with SF-295 CNS, 31.4 µM; in the assay with MOLT-4 leukemia, greater than 100 µM; in the assay with SK-MEL-2 melanoma, 46 µM. The TGI in the assay with SK-MEL-28 melanoma and with OVCAR-3 ovarian was greater than 100 µM each time.
`O=C1N(c2ccccc2)C(=O)C2(SC=NN2Cc2ccccc2)N1c1ccccc1` (stereo unspecified): the TGI with NCI-H522 lung, in the assay on HOP-92 NSCLC, in the assay on MALME-3M melanoma, in the assay with SF-295 CNS, in the assay on MOLT-4 leukemia and with SK-MEL-28 melanoma was greater than 100 µM in each case. For the same compound, the TGI in the assay on OVCAR-3 ovarian is greater than 100 µM.
With `CC1(C)OC(C[C@]2(C#N)C[C@H](CCl)OC(C)(C)O2)C[C@@H](C[C@]2(C#N)C[C@H](CCl)OC(C)(C)O2)O1` (stereo partly specified), the TGI in the assay on NCI-H522 lung, in the assay on HOP-92 NSCLC, with MALME-3M melanoma, in the assay on SF-295 CNS, with MOLT-4 leukemia and with SK-MEL-2 melanoma was greater than 100 µM in each case. The TGI with SK-MEL-28 melanoma and with OVCAR-3 ovarian was greater than 100 µM throughout.
For `CC1(C)CCc2cc3c(cc2O1)OCC1c2cc4c(cc2OC31)OCO4` (stereo unspecified), the TGI in the assay with NCI-H522 lung, in the assay with HOP-92 NSCLC, in the assay with MALME-3M melanoma, in the assay on SF-295 CNS, with MOLT-4 leukemia and in the assay on OVCAR-3 ovarian was greater than 100 µM throughout.
On to `COc1ccc(C(=O)C(C(=O)C(=O)Nc2ccc(Cl)c(Cl)c2)c2ccc(OC)cc2)cc1` (stereo unspecified), for which the TGI with HOP-92 NSCLC, with MALME-3M melanoma, in the assay on SF-295 CNS, in the assay with MOLT-4 leukemia, in the assay with SK-MEL-2 melanoma and in the assay with SK-MEL-28 melanoma was greater than 100 µM in each case. In the assay with OVCAR-3 ovarian, the TGI is greater than 100 µM.

Values taken from PubChem BioAssay (NCI).
